Data reported in ChEMBL document CHEMBL1144754, “Formation of fluorine-18 labeled diaryl ureas--labeled VEGFR-2/PDGFR dual inhibitors as molecular imaging agents for angiogenesis” (Bioorg Med Chem, 2008).

What was measured:
[1] = Inhibition of PDGFR expressed in NIH cells by Western blot analysis; type: cell-based
[2] = molecular target: Insulin-like growth factor 1 receptor (Homo sapiens, UniProt P08069); assay: Inhibition of IGF1R by ELISA
[3] = molecular target: Epidermal growth factor receptor (Homo sapiens, UniProt P00533); assay: Inhibition of EGFR expressed in DHER14 cells by Western blot analysis; type: cell-based
Epidermal growth factor receptor, sequence (P00533 whole entry): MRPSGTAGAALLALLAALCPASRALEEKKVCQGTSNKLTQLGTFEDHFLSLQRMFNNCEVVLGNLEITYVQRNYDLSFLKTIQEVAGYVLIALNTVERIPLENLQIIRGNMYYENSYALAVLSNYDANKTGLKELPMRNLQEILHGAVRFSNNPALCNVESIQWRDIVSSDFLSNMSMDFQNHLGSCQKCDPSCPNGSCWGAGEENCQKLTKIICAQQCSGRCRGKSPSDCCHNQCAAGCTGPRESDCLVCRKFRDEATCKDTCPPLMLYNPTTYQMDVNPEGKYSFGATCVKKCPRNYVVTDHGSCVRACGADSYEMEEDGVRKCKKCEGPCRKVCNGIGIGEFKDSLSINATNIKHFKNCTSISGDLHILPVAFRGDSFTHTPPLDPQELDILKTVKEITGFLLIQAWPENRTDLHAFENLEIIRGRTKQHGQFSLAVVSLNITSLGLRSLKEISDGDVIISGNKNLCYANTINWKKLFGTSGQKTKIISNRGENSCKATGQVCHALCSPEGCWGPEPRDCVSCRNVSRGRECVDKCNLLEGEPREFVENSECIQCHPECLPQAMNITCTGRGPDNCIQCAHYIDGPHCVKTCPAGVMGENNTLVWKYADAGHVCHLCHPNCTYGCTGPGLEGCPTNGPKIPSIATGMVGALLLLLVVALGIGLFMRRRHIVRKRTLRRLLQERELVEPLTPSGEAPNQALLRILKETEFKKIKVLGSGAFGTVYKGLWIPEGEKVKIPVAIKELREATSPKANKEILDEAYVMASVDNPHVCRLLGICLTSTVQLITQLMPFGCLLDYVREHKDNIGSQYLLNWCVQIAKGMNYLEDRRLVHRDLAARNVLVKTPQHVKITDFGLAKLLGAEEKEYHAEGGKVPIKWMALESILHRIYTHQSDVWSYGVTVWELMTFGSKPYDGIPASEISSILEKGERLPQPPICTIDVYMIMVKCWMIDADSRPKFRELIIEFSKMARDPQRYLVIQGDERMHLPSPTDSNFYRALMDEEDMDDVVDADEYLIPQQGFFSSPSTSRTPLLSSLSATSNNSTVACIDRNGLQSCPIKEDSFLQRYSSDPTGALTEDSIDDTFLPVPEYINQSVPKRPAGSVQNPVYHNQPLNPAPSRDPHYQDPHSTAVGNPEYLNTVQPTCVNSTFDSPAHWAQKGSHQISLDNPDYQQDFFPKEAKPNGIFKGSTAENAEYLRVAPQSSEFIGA

[4] = molecular target: Receptor tyrosine-protein kinase erbB-2 (Homo sapiens, UniProt P04626); assay: Inhibition of Her2 expressed in CSH12 cells by Western blot analysis; type: cell-based
Receptor tyrosine-protein kinase erbB-2, sequence (P04626 whole entry): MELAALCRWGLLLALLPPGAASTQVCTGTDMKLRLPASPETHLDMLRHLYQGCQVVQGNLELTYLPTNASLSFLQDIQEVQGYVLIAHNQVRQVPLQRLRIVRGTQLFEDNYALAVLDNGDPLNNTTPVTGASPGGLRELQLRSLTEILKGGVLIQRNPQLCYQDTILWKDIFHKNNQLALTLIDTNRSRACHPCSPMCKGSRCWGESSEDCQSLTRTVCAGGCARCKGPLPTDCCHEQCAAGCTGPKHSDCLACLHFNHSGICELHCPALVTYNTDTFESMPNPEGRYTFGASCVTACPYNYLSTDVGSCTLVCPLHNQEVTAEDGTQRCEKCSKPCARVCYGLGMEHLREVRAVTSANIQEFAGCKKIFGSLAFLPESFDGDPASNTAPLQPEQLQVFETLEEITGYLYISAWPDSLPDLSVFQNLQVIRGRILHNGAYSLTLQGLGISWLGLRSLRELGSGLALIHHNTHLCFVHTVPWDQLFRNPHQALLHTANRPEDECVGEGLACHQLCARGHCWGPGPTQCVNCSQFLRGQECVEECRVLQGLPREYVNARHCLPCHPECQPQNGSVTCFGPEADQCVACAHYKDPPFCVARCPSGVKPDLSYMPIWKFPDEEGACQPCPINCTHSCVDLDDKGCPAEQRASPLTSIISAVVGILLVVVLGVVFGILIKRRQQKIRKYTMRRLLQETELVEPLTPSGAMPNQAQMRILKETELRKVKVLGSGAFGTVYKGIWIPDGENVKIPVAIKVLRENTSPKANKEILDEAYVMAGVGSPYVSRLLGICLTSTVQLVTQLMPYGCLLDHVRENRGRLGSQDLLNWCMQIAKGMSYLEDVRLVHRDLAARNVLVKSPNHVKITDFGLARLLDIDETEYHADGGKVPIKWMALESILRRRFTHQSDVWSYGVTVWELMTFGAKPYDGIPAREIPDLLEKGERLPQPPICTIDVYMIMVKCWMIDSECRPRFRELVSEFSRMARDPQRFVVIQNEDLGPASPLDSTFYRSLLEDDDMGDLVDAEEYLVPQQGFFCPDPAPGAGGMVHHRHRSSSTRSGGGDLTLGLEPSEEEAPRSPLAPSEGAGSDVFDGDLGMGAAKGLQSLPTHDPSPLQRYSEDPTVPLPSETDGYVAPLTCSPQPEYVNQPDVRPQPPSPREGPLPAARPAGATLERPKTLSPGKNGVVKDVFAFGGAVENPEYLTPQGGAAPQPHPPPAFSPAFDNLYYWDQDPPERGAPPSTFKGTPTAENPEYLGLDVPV

[5] = Inhibition of VEGFR expressed in PAE cells by Western blot analysis; type: cell-based
[6] = test system: Plasma; assay: Ex vivo stability in human plasma assessed as radioactivity at 300 uCi upto 120 hrs; type: ADME, cell-free

Insulin-like growth factor 1 receptor, sequence (P08069 31-736 limits assumed): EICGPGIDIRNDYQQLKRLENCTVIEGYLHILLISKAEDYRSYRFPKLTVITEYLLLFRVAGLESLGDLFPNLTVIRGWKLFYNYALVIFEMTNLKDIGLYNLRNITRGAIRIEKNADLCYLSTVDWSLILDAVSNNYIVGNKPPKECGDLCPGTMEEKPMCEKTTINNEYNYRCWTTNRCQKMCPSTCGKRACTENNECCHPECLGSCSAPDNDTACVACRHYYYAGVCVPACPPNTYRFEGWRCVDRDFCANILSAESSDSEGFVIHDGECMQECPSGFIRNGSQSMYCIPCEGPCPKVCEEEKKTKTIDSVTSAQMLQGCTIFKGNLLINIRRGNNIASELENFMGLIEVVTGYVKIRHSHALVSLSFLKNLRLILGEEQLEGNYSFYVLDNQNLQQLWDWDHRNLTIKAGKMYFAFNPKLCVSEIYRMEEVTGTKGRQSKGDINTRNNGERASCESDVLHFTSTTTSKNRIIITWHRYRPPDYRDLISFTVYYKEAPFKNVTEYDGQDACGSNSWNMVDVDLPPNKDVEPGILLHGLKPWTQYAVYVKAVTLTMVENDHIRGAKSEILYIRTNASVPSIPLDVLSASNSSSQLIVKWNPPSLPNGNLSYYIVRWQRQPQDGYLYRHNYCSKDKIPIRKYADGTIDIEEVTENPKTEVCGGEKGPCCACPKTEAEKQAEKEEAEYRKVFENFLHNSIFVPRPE
Insulin-like growth factor 1 receptor, sequence (P08069 741-1367 limits assumed): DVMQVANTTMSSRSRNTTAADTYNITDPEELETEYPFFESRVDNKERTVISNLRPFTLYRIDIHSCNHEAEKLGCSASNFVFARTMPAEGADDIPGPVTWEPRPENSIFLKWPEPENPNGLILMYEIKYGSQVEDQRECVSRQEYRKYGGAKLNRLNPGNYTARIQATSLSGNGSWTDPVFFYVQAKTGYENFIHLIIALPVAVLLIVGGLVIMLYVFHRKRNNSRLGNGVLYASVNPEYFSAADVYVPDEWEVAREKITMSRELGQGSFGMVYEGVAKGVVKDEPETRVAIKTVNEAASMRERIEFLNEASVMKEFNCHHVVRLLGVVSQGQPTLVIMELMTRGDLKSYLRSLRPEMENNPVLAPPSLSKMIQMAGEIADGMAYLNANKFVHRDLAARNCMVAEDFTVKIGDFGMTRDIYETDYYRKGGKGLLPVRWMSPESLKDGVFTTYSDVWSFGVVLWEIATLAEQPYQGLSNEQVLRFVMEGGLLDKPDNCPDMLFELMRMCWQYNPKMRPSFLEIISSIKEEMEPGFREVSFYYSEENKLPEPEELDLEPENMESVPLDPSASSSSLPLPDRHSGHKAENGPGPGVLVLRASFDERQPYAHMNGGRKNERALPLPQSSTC

COc1cc2nccc(Oc3ccc(NC(=O)Nc4ccc(F)cc4F)cc3F)c2cc1OC
IC50 [1]: 2 nM
IC50 [2]: > 2000 nM
IC50 [3]: > 500 nM
IC50 [4]: > 500 nM

COc1cc2nccc(Oc3ccc(NC(=O)Nc4ccc(F)cc4)cc3F)c2cc1OC
IC50 [1]: 2 nM
IC50 [2]: > 2000 nM
IC50 [3]: > 500 nM
IC50 [5]: 8 nM
IC50 [4]: > 500 nM

COc1cc2nccc(Oc3ccc(NC(=O)Nc4ccccc4F)cc3F)c2cc1OC
IC50 [1]: 2 nM
IC50 [2]: > 2000 nM
IC50 [3]: > 500 nM
IC50 [5]: 4 nM
IC50 [4]: > 500 nM

COc1cc2nccc(Oc3ccc(NC(=O)Nc4ccc([18F])cc4)cc3F)c2cc1OC
Stability [6]: Stable
